Source: paper PMC10247784, “Physiological activation of human and mouse bitter taste receptors by bile acids” (Communications Biology, 2023)
“Also recorded” adds a separate entry of the source.

Test system: mouse Tas2rs
Assay: Calcium imaging screening of 34 mouse bitter taste receptors
Type: cell-based
Conditions: screening of 34 mouse receptors; listed as CDCA
Procedure: This set of bile acids was chosen because of their commercial availability in high purities, their diversity within the class of bile acids and their previous detection and quantitation in human blood. Stock solutions were prepared in DMSO. […] Maximal applied concentrations are due to solubility problems or receptor-independent artefacts during measurement at high bile acid concentrations (Table 1, Table 2)[12],[58]. […]
Cells were loaded using the calcium-sensitive fluorescent dye Fluo-4-AM (Abcam, Cambridge, Great Britain) in the presence of 2.5 mM probenecid (Sigma-Aldrich, Steinheim, Germany) the day after transfection[13],[41]. […] For automated agonist application and measurement of fluorescence changes, a FLIPR^TETRA device (Molecular Devices, San José, United States) was used. […]
Measured data were negative control corrected by subtracting the signal of the mock-transfected cells and exported to Microsoft Excel using the FLIPR software ScreenWorks 4.2. In Microsoft Excel software, standardization of maximum fluorescence intensities to the basal fluorescence and normalization to the buffer-only control was done to calculate the relative fluorescence changes (ΔF/F). […]

Compound: C[C@H](CCC(=O)O)[C@H]1CC[C@H]2[C@@H]3[C@H](O)C[C@@H]4C[C@H](O)CC[C@]4(C)[C@H]3CC[C@]12C [Chenodeoxycholic Acid, chenodeoxycholic acid]
- Response of mouse Tas2rs: did not activate any; also recorded: did not obtain any response
